Values of other authors in article PMC11672368 (Therapeutic Advances in Medical Oncology, 2024).
Values belong to the substance of their own block, whether it stands above or below them.

Experiments:
[1] = depot injection
[2] = system: serum testosterone

- elimination half-life (t1/2): 5 h
Substance: Triptorelin

Substance: degarelix
- incidence of injection-site reactions [1]: ~40%

Substance: leuprolide acetate
- achievement rate of serum total testosterone 0.2 ng/mL [2]: 57%
